pIC50: −log10 of the molar value.
How the values were obtained:
[1] = test system: PC-3 prostate cancer cell line; test: In vitro cytotoxicity analysis (XTT), 72-hour exposure; type: cell-based; settings: Homo sapiens, PC3 cells
Experimental: (§1) Briefly, cell lines were seeded at various cell densities depending on the cell type.
(§2) Tables 1-3 display cytotoxicity data for exemplary compounds following a 72-hour exposure.

[2] = test system: JeKo-1 mantle cell lymphoma cell line; test: as above; type: cell-based; settings: Homo sapiens, JEKo1 cells
Experimental: as §1, §2

[3] = test system: WiDr colorectal cancer cell line; test: as above; type: cell-based; settings: Homo sapiens, read-out: Cytotoxicity IC50
Experimental: as §1

[4] = test system: JVM-2 mantle cell lymphoma cell line; test: as above; type: cell-based; settings: Homo sapiens, JVM-2 cells
Experimental: as §1, §2

[5] = Stability study in buffer solution by HPLC; type: physicochemical; settings: 100 μM in PBS, pH 7.4
Experimental: Stability studies were performed for exemplary compounds 48 and 15. A 100 μM solution of compound 48 was prepared in buffer (PBS, pH 7.4) and warfarin was used as an internal standard. A sample was injected into a HPLC periodically starting at day 0 and ending at about 6 weeks to find out the stability of compound 48 in PBS solution. […] After 6 weeks, 58% of compound 48 remained in the buffer solution.

CC(/C=C/[C@@H]1C[C@]2(CO2)CC(C)(C)O1)=C\C[C@H]1CC[C@@H](NC(=O)/C=C\[C@H](C)OC(=O)c2cccnc2)CC1 [Compound 21, (S,Z)-5-((1R,4R)-4-((2E,4E)-5-((3R,5S)-7,7-dimethyl-1,6-dioxaspiro[2.5]octan-5-yl)-3-methylpenta-2,4-dienyl)cyclohexylamino)-5-oxopent-3-en-2-yl nicotinate]
pIC50 [1]: 5.09
pIC50 [2]: 6.80

COc1cccc(N2CCN(C(=O)O[C@@H](C)/C=C\C(=O)N[C@H]3CC[C@@H](C/C=C(C)/C=C/[C@@H]4C[C@]5(CO5)CC(C)(C)O4)CC3)CC2)c1 [Compound 25, (S,Z)-5-((1R,4R)-4-((2E,4E)-5-((3R,5S)-7,7-dimethyl-1,6-dioxaspiro[2.5]octan-5-yl)-3-methylpenta-2,4-dienyl)cyclohexylamino)-5-oxopent-3-en-2-yl 4-(3-methoxyphenyl)piperazine-1-carboxylate]
pIC50 [3]: < 5.90
pIC50 [1]: < 5.60
pIC50 [2]: < 6.30
pIC50 [4]: < 6.30

CC(/C=C/[C@@H]1C[C@]2(CO2)CC(C)(C)O1)=C\C[C@H]1OC[C@@H](NC(=O)/C=C\[C@H](C)OC(=O)C(C)C)CO1 [Compound 48, (S,Z)-5-((2R,5R)-2-((2E,4E)-5-((3R,5S)-7,7-dimethyl-1,6-dioxaspiro[2.5]octan-5-yl)-3-methylpenta-2,4-dienyl)-1,3-dioxan-5-ylamino)-5-oxopent-3-en-2-yl isobutyrate]
pIC50 [1]: 5.28
pIC50 [2]: 6.77
compound remaining in the buffer solution ([5]; after 6 weeks): 58%
degradable products ([5]; after 1 day): No degradable products were found
half-life at 100 μM ([5]; PBS buffer, read-out: calculated half life (converted)): 50.4 days

CC(/C=C/[C@@H]1C[C@]2(CO2)CC(C)(C)O1)=C\C[C@H]1CC[C@@H](NC(=O)/C=C\[C@H](C)OC(=O)N2CCN(C)CC2)CC1 [Compound 26, (S,Z)-5-((1R,4R)-4-((2E,4E)-5-((3R,5S)-7,7-dimethyl-1,6-dioxaspiro[2.5]octan-5-yl)-3-methylpenta-2,4-dienyl)cyclohexylamino)-5-oxopent-3-en-2-yl 4-methylpiperazine-1-carboxylate]
pIC50 [3]: < 6.30
pIC50 [1]: < 5.60
pIC50 [2]: < 6.30
pIC50 [4]: < 6.30

CC(/C=C/[C@H]1OCC[C@@]2(CO2)[C@@H]1O)=C\C[C@H]1CC[C@@H](NC(=O)/C=C\[C@H](C)OC(=O)C(C)C)CC1 [Compound 38, (S,Z)-5-((1S,4R)-4-((2E,4E)-5-((3R,4R,5R)-4-hydroxy-1,6-dioxaspiro[2.5]octan-5-yl)-3-methylpenta-2,4-dienyl)cyclohexylamino)-5-oxopent-3-en-2-yl isobutyrate]
pIC50 [1]: < 5.00
pIC50 [2]: < 6.00

CC(/C=C/[C@@H]1C[C@]2(CO2)CC(C)(C)O1)=C\C[C@H]1CC[C@@H](NC(=O)/C=C\[C@H](C)OC(=O)C2CCN(C)CC2)CC1 [Compound 16, (S,Z)-5-((1R,4R)-4-((2E,4E)-5-((3R,5S)-7,7-dimethyl-1,6-dioxaspiro[2.5]octan-5-yl)-3-methylpenta-2,4-dienyl)cyclohexylamino)-5-oxopent-3-en-2-yl 1-methylpiperidine-4-carboxylate]
pIC50 [1]: 5.00
pIC50 [2]: < 6.00

CC(/C=C/[C@@H]1C[C@]2(CO2)CC(C)(C)O1)=C\C[C@H]1CC[C@@H](NC(=O)/C=C\[C@H](C)OC(=O)N2CCN(C3CCCCCC3)CC2)CC1 [Compound 24, (S,Z)-5-((1R,4R)-4-((2E,4E)-5-((3R,5S)-7,7-dimethyl-1,6-dioxaspiro[2.5]octan-5-yl)-3-methylpenta-2,4-dienyl)cyclohexylamino)-5-oxopent-3-en-2-yl 4-cycloheptylpiperazine-1-carboxylate]
pIC50 [1]: < 6.30
pIC50 [4]: < 6.00

CC(/C=C/[C@@H]1C[C@]2(CO2)CC(C)(C)O1)=C\C[C@H]1CC[C@@H](NC(=O)/C=C\[C@H](C)OC(=O)C(C)(C)C)CC1 [Compound 23, (S,Z)-5-((1R,4R)-4-((2E,4E)-5-((3R,5S)-7,7-dimethyl-1,6-dioxaspiro[2.5]octan-5-yl)-3-methylpenta-2,4-dienyl)cyclohexylamino)-5-oxopent-3-en-2-yl pivalate]
pIC50 [1]: 6.12
pIC50 [2]: 7.52

CC(/C=C/[C@@H]1C[C@]2(CO2)CC(C)(C)O1)=C\C[C@H]1OC[C@@H](NC(=O)/C=C\[C@H](C)OC(=O)C(C)(C)C)CO1 [Compound 49, (S,Z)-5-((2R,5R)-2-((2E,4E)-5-((3R,5S)-7,7-dimethyl-1,6-dioxaspiro[2.5]octan-5-yl)-3-methylpenta-2,4-dienyl)-1,3-dioxan-5-ylamino)-5-oxopent-3-en-2-yl pivalate]
pIC50 [1]: 5.93
pIC50 [2]: 6.47

CC(/C=C/[C@@H]1C[C@]2(CO2)CC(C)(C)O1)=C\C[C@H]1CC[C@@H](NC(=O)/C=C\[C@H](C)OC(=O)c2ccco2)CC1 [Compound 18, (S,Z)-5-((1R,4R)-4-((2E,4E)-5-((3R,5S)-7,7-dimethyl-1,6-dioxaspiro[2.5]octan-5-yl)-3-methylpenta-2,4-dienyl)cyclohexylamino)-5-oxopent-3-en-2-yl furan-2-carboxylate]
pIC50 [1]: 5.46
pIC50 [2]: 6.85

CC(/C=C/[C@@H]1C[C@]2(CO2)CC(C)(C)O1)=C\C[C@H]1CC[C@@H](NC(=O)/C=C\[C@H](C)OC(=O)C2CCOCC2)CC1 [Compound 17, (S,Z)-5-((1R,4R)-4-((2E,4E)-5-((3R,5S)-7,7-dimethyl-1,6-dioxaspiro[2.5]octan-5-yl)-3-methylpenta-2,4-dienyl)cyclohexylamino)-5-oxopent-3-en-2-yl tetrahydro-2H-pyran-4-carboxylate]
pIC50 [1]: 5.71
pIC50 [2]: 6.36

CC(/C=C/[C@@H]1C[C@]2(CO2)CC(C)(C)O1)=C\C[C@H]1CC[C@@H](NC(=O)/C=C\[C@H](C)OC(=O)C2CCN(c3ccnc(C(F)(F)F)n3)CC2)CC1 [Compound 22, (S,Z)-5-((1R,4R)-4-((2E,4E)-5-((3R,5S)-7,7-dimethyl-1,6-dioxaspiro[2.5]octan-5-yl)-3-methylpenta-2,4-dienyl)cyclohexylamino)-5-oxopent-3-en-2-yl 1-(2-(trifluoromethyl)pyrimidin-4-yl)piperidine-4-carboxylate]
pIC50 [1]: < 5.00
pIC50 [2]: < 6.00

CC(/C=C/[C@@H]1C[C@]2(CO2)CC(C)(C)O1)=C\C[C@H]1CC[C@@H](NC(=O)/C=C\[C@H](C)OC(=O)c2ccccc2)CC1 [Compound 20, (S,Z)-5-((1R,4R)-4-((2E,4E)-5-((3R,5S)-7,7-dimethyl-1,6-dioxaspiro[2.5]octan-5-yl)-3-methylpenta-2,4-dienyl)cyclohexylamino)-5-oxopent-3-en-2-yl benzoate]
pIC50 [1]: 5.31
pIC50 [2]: 6.39

CC(=O)O[C@@H](C)CCC(=O)N[C@H]1CO[C@@H](C/C=C(C)/C=C/[C@@H]2C[C@]3(CO3)CC(C)(C)O2)OC1 [Compound 53, (S)-5-((2R,5R)-2-((2E,4E)-5-((3R,5S)-7,7-dimethyl-1,6-dioxaspiro[2.5]octan-5-yl)-3-methylpenta-2,4-dienyl)-1,3-dioxan-5-ylamino)-5-oxopentan-2-yl acetate]
pIC50 [1]: < 5.00
pIC50 [2]: < 6.00

CC(/C=C/[C@@H]1C[C@]2(CO2)CC(C)(C)O1)=C\C[C@H]1CC[C@@H](NC(=O)/C=C\[C@H](C)OC(=O)N2CCN(CCO)CC2)CC1 [Compound 27, (S,Z)-5-((1R,4R)-4-((2E,4E)-5-((3R,5S)-7,7-dimethyl-1,6-dioxaspiro[2.5]octan-5-yl)-3-methylpenta-2,4-dienyl)cyclohexylamino)-5-oxopent-3-en-2-yl 4-(2-hydroxyethyl)piperazine-1-carboxylate]
pIC50 [3]: < 5.90
pIC50 [1]: < 5.60
pIC50 [2]: < 6.30
pIC50 [4]: < 6.30

CC(/C=C/[C@@H]1C[C@](O)(CCl)CC(C)(C)O1)=C\C[C@H]1CC[C@@H](NC(=O)/C=C\[C@H](C)OC(=O)N2CCN(C3CCCCCC3)CC2)CC1 [Compound 28, (S,Z)-5-((1R,4R)-4-((2E,4E)-5-((2S,4R)-4-(chloromethyl)-4-hydroxy-6,6-dimethyltetrahydro-2H-pyran-2-yl)-3-methylpenta-2,4-dienyl)cyclohexylamino)-5-oxopent-3-en-2-yl 4-cycloheptylpiperazine-1-carboxylate]
pIC50 [3]: < 5.90
pIC50 [1]: < 5.30
pIC50 [4]: < 5.00

CC(/C=C/[C@@H]1C[C@]2(CO2)CC(C)(C)O1)=C\C[C@H]1CC[C@@H](NC(=O)/C=C\[C@H](C)OC(=O)c2cccn2C)CC1 [Compound 19, (S,Z)-5-((1R,4R)-4-((2E,4E)-5-((3R,5S)-7,7-Dimethyl-1,6-dioxaspiro[2.5]octan-5-yl)-3-methylpenta-2,4-dienyl)cyclohexylamino)-5-oxopent-3-en-2-yl 1-methyl-1H-pyrrole-2-carboxylate]
pIC50 [1]: 5.37
pIC50 [2]: 6.41
